# From PMC10825075, “Proteomic analysis of horse hair extracts provides no evidence for the existence of a hypoallergenic Curly Horse breed” (Clinical and Translational Allergy, 2024)
# What was measured:
# Equ c 1.0102 [1] = biological target: T1, Equ c 1.0102 (Equus caballus, UniProt A0A3Q2HX90); experiment: competitive displacement of fluorescent probe 1-NPN, 12-point titration, one-site fit; type: binding
# T1 construct: mature protein, residues 16-187 (signal peptide removed), C-terminal His6 tag, codon-optimized synthetic cDNA in pET-21d(+), E. coli Rosetta-gami 2(DE3), purified by HisTrap
# T1 sequence (A0A3Q2HX90 16-187): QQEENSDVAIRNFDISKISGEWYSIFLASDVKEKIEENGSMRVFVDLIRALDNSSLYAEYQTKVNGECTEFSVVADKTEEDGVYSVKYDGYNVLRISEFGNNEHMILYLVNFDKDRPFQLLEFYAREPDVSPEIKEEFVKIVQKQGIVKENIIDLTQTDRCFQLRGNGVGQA
# Equ c 1.0102 [2] = biological target: T1, Equ c 1.0102; experiment: fluorescent probe binding (excitation […] nm, emission […] nm); conditions: read-out: dissociation constant
# Equ c 1.0102 [3] = biological target: T1, Equ c 1.0102; experiment: as above
Ki (Equ c 1.0102 [1]),SMILES,Kd (Equ c 1.0102 [2]),EC50 (Equ c 1.0102 [3])
0.6 µM,"CC(C)CCCC(C)CCO (stereo not shown) [3,7-dimethyl-1-octanol]",–,–
1.1 µM,CCCCCCCCCCO [1-decanol],–,–
–,c1ccc(Nc2cccc3ccccc23)cc1 [1-NPN],6.4 µM,5 µM
